Measured values taken from US9840627B2, “Application of camptothecin and derivatives thereof as antifouling agent” (priority 2013, dated 2017).
Where two headings read alike, the source gives them in different places.

Experiments:
Assay type in all cases: in vivo
[1] = tested on: cypris larvas of Balanus albicostatus; assay: Inhibitory effect on the attachment of barnacles (cypris larvas); details: 48 h, membrane filtrated seawater
From the text: Barnacles are sessile Cirripedia with calcareous shells and widespread. They firmly attach to the surfaces of vessels and various offshore artificial facilities, and are one of the major marine fouling organisms as well as one of the major target organisms in the study of antifouling technology. Adults of Balanus albicostatus were collected from the rocks and piers at Baicheng Coast in Xiamen, and their cypris larvas were obtained by culturing in laboratory. It is the attachment of the cypris larvas that causes the barnacles to change from swimming life to attaching life. Thus, inhibition of the attachment of the cypris larvas can verify the antifouling activity of the compounds. CPT and 10-hydroxyl-CPT were dissolved in ethyl acetate respectively, and a series of concentration gradient were set according to the results of pre-experiment. 1 ml of each solution was taken to a petri dish respectively, 1 ml of ethyl acetate was taken to another blank petri dish serving as control group. After the solvents evaporated completely and the compounds were distributed evenly on the bottom surfaces and the side surfaces of the petri dishes, each petri dish was added with 10 ml of membrane filtrated seawater (filtrated by membrane with pore size of 0.22 μm, the same below). […]

[2] = tested on: larvas of Bugula neritina; assay: Inhibitory effect on the attachment of Bugula larvas; details: 48 h, membrane filtrated seawater
From the text: Bugulas are marine bryozoan and widespread in various sea areas in the world. They often attach to the surfaces of marine artificial facilities like mariculture netting, cages, vessels, buoys, etc., and they are important marine fouling organisms as well. Bugula neritina, also called multicellular Bugula, its adults were collected from the fish culture net bins in Western sea area of Xiamen and put into an aquarium filled with fresh seawater after back to the laboratory to induce the release of their swimming larvas. It is the attachment of their swimming larvas that causes the Bugulas to change from swimming life to attaching life. Thus, inhibition of the attachment of the swimming larvas can verify the antifouling activity of the compounds. CPT and 10-hydroxyl-CPT were dissolved in ethyl acetate respectively, and a series of concentration gradient were set according to the results of pre-experiment. 1 ml of each solution was taken to a petri dish respectively; 1 ml of ethyl acetate was taken to another blank petri dish serving as control group. After the solvents evaporated completely and the compounds were distributed evenly on the bottom surfaces and the side surfaces of the petri dishes, each petri dish was added with 10 ml of membrane filtrated seawater. […]

[3] = tested on: marine large fouling organisms; details: for coverage ratio of fouling organisms (%, Mean ± SE): antifouling agent 20% by weight in paint, panels in sea area, Xiamen
Procedure: The panel test in natural sea area was carried out referring to the national standard GB/T5370-2007 “Method for testing antifouling panels in shallow submergence”. […] The tested panels were fixed in iron frames after the paints had dried, and they were hanged on the test buoyant rafts in the sea area near Dalipu Island in Xiamen in June, 2010. After the tested panels had been immersed in seawater up to 3, 6, 9 and 12 months, they were then photographed, and the coverage ratios of the fouling organisms in each coated sample areas were analyzed and counted. Herein, the coverage ratio of the fouling organisms is the ratio of surface area covered by marine large fouling organisms in the sample area divided by the whole surface area in the sample area (the same below), and the lower the value is, the higher the antifouling efficiency will be.

Perna viridis = assay: Inhibitory effect on the attachment of mussels by produced byssal threads; details: 24 h culture at room temperature
From the text: Mussels are common bivalve in marine fouling biocenoses, widespread, and are one of the major target organisms in the study of marine antifouling technology. Mussels explore surfaces by their feet, looking for attachment substrate. If proper surfaces for attaching were found, mussels would produce byssal threads to attach to them. […] Perna viridis were collected from the fish net bins in offshore sea area of Zhangzhou, and in which those with shell length of 1.4˜2.4 cm were selected and washed with seawater, followed by gent cut-off of the byssal threads. And then the Perna viridis were washed with membrane filtrated seawater. CPT were first dissolved in a trace of dimethyl sulfoxide, and then mixed with membrane filtrated seawater to prepare a series of concentration gradient. 4 ml of each solution was taken into a 12-well plate, and each well was added with one Perna viridis. 4 ml of membrane filtrated seawater containing a trace of dimethyl sulfoxide and one Perna viridis were added into the control group. Each experimental group and control group had 8 paralleled groups. After 24-hours culture at room temperature, the amount of byssal threads produced by Perna viridis were observed, and the half inhibition concentration of CPT for the attachment of Perna viridis by produced byssal threads, EC50, were determined.

Row | SMILES | half inhibition concentration (EC50) for the attachment of cypris larvas of Balanus albicostatus [1] [µg/mL] | EC50 for the attachment of larvas of Bugula neritina [2] [µg/mL] | coverage ratio of fouling organisms (%, Mean ± SE) ([3]; after 3 months) [%] | coverage ratio of fouling organisms (%, Mean ± SE) ([3]; after 6 months) [%] | coverage ratio of fouling organisms (%, Mean ± SE) ([3]; after 9 months) [%] | coverage ratio of fouling organisms (%, Mean ± SE) ([3]; after 12 months) [%] | antifouling term ([3]; paints prepared with CPT as antifouling agent, panel test in sea area) | EC50 for the attachment of Perna viridis by produced byssal threads (Perna viridis) [µg/mL]
1 | CC[C@@]1(O)C(=O)OCc2c1cc1n(c2=O)Cc2cc3cc(O)ccc3nc2-1 [10-hydroxyl-CPT] | 1.78 | 5.93 |  |  |  |  |  | 
2 | CC[C@@]1(O)C(=O)OCc2c1cc1n(c2=O)Cc2cc3ccccc3nc2-1 [CPT, Camptothecin (CPT)] | 1.73 | 15.02 | 0.15 ± 0.12 | 11.6 ± 6.68 | 9.03 ± 2.64 | 39.67 ± 10.43 | up to 12 months | 10.78
3 | [Cu].[O]=[Cu] [Cu2O, cuprous oxide, reference compound] |  |  | 7.23 ± 2.02 | 91.75 ± 2.90 | 70.91 ± 13.40 | 98.88 ± 0.48 |  | 
